Results taken from patent US20080306047A1, “Use of Aza-Phenylalanine Compounds For Treating Cardiac Arrhythmia” (priority 2005, published 2008).

Assays:
isolated rat hearts [1] = test: Reperfusion-induced arrhythmia in isolated rat hearts (Langendorff) subjected to 40-min global ischemia; parameters: species or system Wistar rats; details: 40-min ischemia, 50 min reperfusion, drug 1 μM in K-H solution, mean ± SEM
Description: Wistar rats (230-330 g) are anaesthetized by intraperitoneal injection of urethane (0.7 ml 20% w/v solution/100 g body weight), followed by intraperitoneal injection of heparin (2500 IU/rat). Having opened the thorax a cannula filled with cold Krebs-Henseleit (K-H) solution is inserted into the ascending aorta. After that the heart is excised, it is connected to Langendorff's apparatus and perfused with K-H solution (K-H solution, in mM: 118.6 NaCl; 4.7 KCl; 11.1 glucose; 25 NaHCO3; 1.66 MgSO4; 1.2 NaH2PO4, 2.52 […]; pH=7.4) under constant pressure (60 cm H2O). Prior to use, the K-H perfusion solution is passed through a cellulose acetate filter (pore size 5 μm) to remove any particulate impurities. The perfusion solution is kept at 38.5° C. and gassed with 95% O2 and 5% CO2. Two silver (AgCl) electrodes are set on the surface of the heart in the direction of electrical axis of the heart for recording electrocardiogram. Electrodes are placed on the heart in such a position that a sufficient amplitude of P wave and QRS complex is obtained. The following experimental groups are studied: 1) isolated hearts are perfused with oxygenated K-H solution for 30 min followed by 40 min of global ischemia and followed by 50 min of reperfusion with oxygenated K-H solution; 2) isolated hearts are perfused with oxygenated K-H solution for 20 min, followed by 10 min perfusion with experimental drug dissolved in K-H and then the hearts are exposed to 40 min of global ischemia followed by 50 min reperfusion with experimental drug dissolved in K-H. The used experimental drugs are compounds of formulae IV, V and VI as defined above. As a positive control direct thrombin inhibitor argatroban and low molecular weight heparin nadroparin are used. The hearts are monitored for the duration of proarrhythmic events according to the Lambeth convention (Walker et al., Cardiovascular Res 1988; 22: 447-455). Lactate dehydrogenase (LDH) release rate is determined spectophotometrically (Wroblevski & LaDue, Proc Exp Biol Med 1955; 90: 210-213) in the coronary effluent and is expressed in μkat per minute and per weight of the heart (Grasic Kuhar et al. Eur J Pharmacol 2004; 488: 137-46).

isolated rat hearts [2] = test: Reperfusion-induced arrhythmia in isolated rat hearts (Langendorff), 25-min global no-flow ischemia, 30 min reperfusion; parameters: species or system Wistar rats; details: 1 μM and 10 μM (+DMSO 500 μL/L), n=12
Description: Hearts from male Wistar rats (300-370 g) anesthetized with diethyl-ether inhalation were perfused with Krebs-Henseleit buffer at 37° C. gassed with carbogen in Langendorff mode as described (Onody A et al., Cardiovasc Res. 2003, 58: 663-670). After an initial 15 min aerobic, normothermic perfusion period, hearts are subjected to 25-min of global, no-flow, normothermic ischemia, followed by 30 min normoxic, normothermic reperfusion. Measured parameters were heart rate and incidence of reperfusion-induced ventricular fibrillation (VF) and ventricular tachycardia (VT). Epicardial electrocardiogram was recorded throughout the experimental protocol to determine heart rate, VF and VT according to the Lambeth conventions (Walker et al., Cardiovasc Res. 1988; 22: 447-455) as described (Csonka et al., 2003; J Cardiovasc Pharmacol 41: 916-922; Ferdinandy et al., Cardiovasc Res. 1995; 58: 663-670.). Recording and evaluation of the ECG was performed using the SPEL Advanced Isosys system (Experimetria Ltd, Budapest, Hungary). Experimental groups were designed as follows: control, solvent (DMSO 500 μL/L), compound of formula IV at 1 μM (+DMSO 500 μL/L), compound of formula IV at 10 μM (+DMSO 500 μL/L), positive control: nifedipine at 0.5 μM (+DMSO 500 μL/L). Animals were randomly assigned to the different groups, however, perfusions were done in 4 parallel experiments within a group (n=12 in each group). The perfusion medium contained the drugs throughout the entire perfusion protocol in the treated groups. HR was compared to the solvent-treated group using ANOVA followed by Dunn's test. The incidence of VF and VT were compared with Chi^2 test in all groups, than each group was compared to the solvent-treated group using the Fischer's exact test.
Compound of formula IV was tested at 10 μM (Compound of formula IV, 10 μM) and 1 μM (Compound of formula IV, 1 μM), nifedipine was tested at 0.5 μM. Chi^2 test followed by the Fischer's exact test. * p<0.05; ** p<0.01; ## p<0.01 (all groups compared to DMSO group)

Row | Compound | Duration VF (ventricular fibrillation) (isolated rat hearts [1]) [s] | Duration VT (ventricular tachycardia) (isolated rat hearts [1]) [s] | Duration of all proarrhythmic events (VT, VF, extrasystolia and asystolia) (isolated rat hearts [1]) [s] | incidence of reperfusion-induced ventricular fibrillation (VF) (isolated rat hearts [2]; compared to DMSO group) | incidence of reperfusion-induced ventricular tachycardia (VT) (isolated rat hearts [2]; compared to DMSO group) | heart rate (HR) (isolated rat hearts [2]; compared to solvent-treated group)
1 | CC1CNc2c(cccc2S(=O)(=O)N[C@@H](CCCNC(=N)N)C(=O)N2CC[C@@H](C)C[C@@H]2C(=O)O)C1 (stereo partly drawn) [Argatroban, argatroban, reference compound] | 583.6 ± 228.6 | 828.7 ± 233.7 | 1731.0 ± 445.0 | – | – | –
2 | N=C(N)c1cccc(CN(NS(=O)(=O)c2ccc3ccccc3c2)C(=O)N2CCCCCC2)c1 [Compound IV] | 78.6 ± 42.6 | 87.2 ± 53.3 | 353.3 ± 148.1 | concentration-dependently decreased | not significantly changed | not significantly changed
3 | N=C(N)c1cccc(CN(NS(=O)(=O)Cc2ccccc2F)C(=O)N2CCCCCC2)c1 [Compound VI] | 596.0 ± 469.4 | 99.5 ± 77.95 | 810.2 ± 461.4 | – | – | –
4 | N/C(=N\O)c1cccc(CN(NS(=O)(=O)c2ccc3ccccc3c2)C(=O)N2CCCCCC2)c1 [Compound V] | 149.3 ± 86.4 | 60.0 ± 30.8 | 278.3 ± 104.2 | – | – | –
